This test deals with PIK3CB;PIK3CG;PIK3CD;PIK3CA (human) (UniProt P48736). Briefly: Enzyme Assay.

SMILES strings stand for the structures.

`CN(C)c1ccc2c(c1)S(=O)(=O)Cc1c(C(=O)N3CCOCC3)nn(-c3ccccc3)c1-2`: the IC50 (commonly the concentration needed to halve the response being measured) amounted to 5.02 µM.
`COC(=O)CCN1CCC[C@H](n2nc(C(=O)N3CCOCC3)c3c2-c2ccccc2S(=O)(=O)C3)C1`: the IC50 was determined as 0.048 µM.
Regarding `CC(C)(C)OC(=O)N1CCC(n2nc(C(=O)N3CCOCC3)c3c2-c2ccccc2S(=O)(=O)C3)C1` (stereo not drawn), the half-maximal inhibitory concentration (IC50) worked out at 1.2 µM.
To `O=C(c1nn([C@H]2CCCN(C(=O)C3CCOCC3)C2)c2c1CS(=O)(=O)c1ccccc1-2)N1CCOCC1` belongs 1.5 µM.
Take `COCc1ccc(-n2nc(C(=O)N3CCOCC3)c3c2-c2ccccc2S(=O)(=O)C3)cc1`: the IC50 was 0.667 µM.
The same measure for `O=C(c1nn(Cc2cc(Cl)cs2)c2c1CS(=O)(=O)c1ccccc1-2)N1CCOCC1`: 0.624 µM; for `O=C(c1nn([C@H]2CCN(CCN3CCC(F)CC3)C2)c2c1CS(=O)(=O)c1ccccc1-2)N1CCOCC1`: 0.055 µM; for `O=C(c1nn([C@@H]2CCN(CCC3CCOCC3)C2)c2c1CS(=O)(=O)c1c(F)cccc1-2)N1CCOCC1`: 1.69 µM.
To `Cc1nnc(-c2cccc(-n3nc(C(=O)N4CCOCC4)c4c3-c3ccccc3S(=O)(=O)C4)c2)o1` belongs 1.2 µM; to `NC(=O)c1cccc(-n2nc(C(=O)N3CCOCC3)c3c2-c2ccccc2S(=O)(=O)C3)c1`, 0.957 µM.
The compound `O=C(c1nn(C2CCN(CCO)CC2)c2c1CS(=O)(=O)c1ccccc1-2)N1CCOCC1` gave a 50% inhibitory concentration (IC50) of 1.76 µM. Against the preceding compound, the IC50 is about 1.8-fold higher.
The same measure for `Cc1cccc2c1S(=O)(=O)Cc1c(C(=O)N3CCOCC3)nn(-c3ccccc3)c1-2`: 1.74 µM.
The same measure for `O=C(NC1CCOCC1)c1cccc(-n2nc(C(=O)N3CCOCC3)c3c2-c2ccccc2S(=O)(=O)C3)c1`: 1.26 µM; for `Cn1cc(-n2nc(C(=O)N3CCOCC3)c3c2-c2ccccc2S(=O)(=O)C3)ccc1=O`: 2.95 µM.
In turn, `O=C(c1nn(-c2ccc(-c3ccccc3)cc2)c2c1CS(=O)(=O)c1ccccc1-2)N1CCOCC1` registered a concentration for half-maximal inhibition (IC50) of 10.3 µM. This IC50 is about 3.5-fold higher than that of the compound before.
The same measure for `O=C(c1nn(-c2ccccc2)c2c1CS(=O)(=O)c1ccc(CN3CCOCC3)cc1-2)N1CCOCC1`: 1.62 µM; for `O=C(c1nn(C2CCCCC2)c2c1CS(=O)(=O)c1ncccc1-2)N1CCOCC1`: 0.437 µM; for `O=C(c1nn(C2CCCN(CCC(F)(F)F)C2)c2c1CS(=O)(=O)c1ccccc1-2)N1CCOCC1` (stereo not drawn): 0.149 µM.
The same measure for `O=C(c1nn(C2CN(CCN3CCOCC3)C2)c2c1CS(=O)(=O)c1ccccc1-2)N1CCOCC1`: 0.236 µM.
The same measure for `COCCNc1ccc2c(c1)S(=O)(=O)Cc1c(C(=O)N3CCOCC3)nn(-c3ccccc3)c1-2`: 6.61 µM; for `COCCN1CCC[C@H](n2nc(C(=O)N3CCOCC3)c3c2-c2cccc(OC)c2S(=O)(=O)C3)C1`: 0.128 µM.
The compound `O=C(c1cccc(-n2nc(C(=O)N3CCOCC3)c3c2-c2ccccc2S(=O)(=O)C3)c1)N1CCCC(CO)C1` (stereo not drawn) came in with an IC50 of 0.502 µM.
The same measure for `O=C(c1nn([C@@H]2CCN(C3CCOCC3)C2)c2c1CS(=O)(=O)c1ccccc1-2)N1CCOCC1`: 0.045 µM; for `O=C(c1nn(-c2ccc(CN3CCOCC3)cc2)c2c1CS(=O)(=O)c1cc(F)ccc1-2)N1CCOCC1`: 0.202 µM; for `O=C(c1nn(-c2cccc(-c3cccnc3)c2)c2c1CS(=O)(=O)c1ccccc1-2)N1CCOCC1`: 0.28 µM.
The same measure for `O=C(c1nn(C2CCCN(Cc3ccccc3)C2)c2c1CS(=O)(=O)c1ccccc1-2)N1CCOCC1` (stereo not drawn): 0.54 µM.
`O=C(c1nn(-c2cccc(Cn3cccn3)c2)c2c1CS(=O)(=O)c1ccccc1-2)N1CCOCC1` gave an IC50 of 0.488 µM.
On to `CC(C)(C)OC(=O)N1CCCC(n2nc(C(=O)N3CCOCC3)c3c2-c2ccccc2S(=O)(=O)C3)C1` (stereo not drawn), for which the half-inhibitory concentration (IC50) was determined as 1.54 µM.
To `Cn1cc(-n2nc(C(=O)N3CCOCC3)c3c2-c2ccsc2S(=O)(=O)C3)ccc1=O` belongs 2.69 µM; to `Cc1ccc(F)cc1-n1nc(C(=O)N2CCOCC2)c2c1-c1ccccc1S(=O)(=O)C2`, 4.2 µM; to `COCCOc1cccc(-n2nc(C(=O)N3CCOCC3)c3c2-c2ccccc2S(=O)(=O)C3)c1`, 0.726 µM.
The same measure for `CN(C)Cc1ccc(-n2nc(C(=O)N3CCOCC3)c3c2-c2ccccc2S(=O)(=O)C3)cc1`: 0.043 µM; for `CN(C)CC(C)(C)c1ccc(-n2nc(C(=O)N3CCOCC3)c3c2-c2ccccc2S(=O)(=O)C3)cc1`: 0.159 µM.
`O=C(c1nn(C2CCCN(CCn3ccnc3)C2)c2c1CS(=O)(=O)c1ccccc1-2)N1CCOCC1` (stereo not drawn) registered a half-inhibitory concentration (IC50) of 0.052 µM.
The same measure for `COCCNC(=O)c1cccc(-n2nc(C(=O)N3CCOCC3)c3c2-c2ccccc2S(=O)(=O)C3)c1`: 1.11 µM; for `O=C(c1nn(CCc2ccccc2)c2c1CS(=O)(=O)c1ccccc1-2)N1CCOCC1`: 1.44 µM.
The same measure for `O=C(c1nn(-c2ccc(C3(CN4CCOCC4)CC3)cc2)c2c1CS(=O)(=O)c1ccccc1-2)N1CCOCC1`: 0.995 µM.
Compound `COCc1noc(-c2cccc(-n3nc(C(=O)N4CCOCC4)c4c3-c3ccccc3S(=O)(=O)C4)c2)n1` had a half-maximal inhibitory concentration (IC50) of 4.19 µM.
The same measure for `COc1cccc2c1S(=O)(=O)Cc1c(C(=O)N3CCOCC3)nn(-c3ccccc3)c1-2`: 0.459 µM; for `O=C(c1nn(-c2ccc(N3CCOCC3)cc2)c2c1CS(=O)(=O)c1ccccc1-2)N1CCOCC1`: 3.94 µM.
To `Cn1nc(C(=O)N2CCOCC2)c2c1-c1cc(Br)ccc1S(=O)(=O)C2` belongs 1.04 µM; to `Cc1ccc2c(c1)S(=O)(=O)Cc1c(C(=O)N3CCOCC3)nn(-c3ccccc3)c1-2`, 1.84 µM; to `COc1ccc(Cn2nc(C(=O)N3CCOCC3)c3c2-c2ccccc2S(=O)(=O)C3)cc1`, 0.459 µM.
To `Cc1cccc(-n2nc(C(=O)N3CCOCC3)c3c2-c2ccccc2S(=O)(=O)C3)c1` belongs 0.926 µM.
On to `NCc1ccc(-n2nc(C(=O)N3CCOCC3)c3c2-c2ccccc2S(=O)(=O)C3)cc1`, for which the IC50 was 0.349 µM.
To `O=C(c1nn(-c2ccc3nn(Cc4ccccc4)cc3c2)c2c1CS(=O)(=O)c1ccccc1-2)N1CCOCC1` belongs 2.08 µM; to `O=C(c1nn(C2CCCN(CCN3CC(F)(F)C3)C2)c2c1CS(=O)(=O)c1c(F)cccc1-2)N1CCOCC1` (stereo not drawn), 0.038 µM.
`COc1ccc(-n2nc(C(=O)N3CCOCC3)c3c2-c2ccccc2S(=O)(=O)C3)cn1`: the IC50 worked out at 2.2 µM. This IC50 lies about 58-fold higher than the previous one.
The same measure for `O=C(c1nn(-c2cccc(CN3CCCCC3)c2)c2c1CS(=O)(=O)c1ccccc1-2)N1CCOCC1`: 0.394 µM; for `O=C(c1nn(C2CCCC(C(=O)N3CCCCC3)C2)c2c1CS(=O)(=O)c1ccccc1-2)N1CCOCC1` (stereo not drawn): 0.362 µM.
Compound `CN1CCCC(Cn2nc(C(=O)N3CCOCC3)c3c2-c2ccccc2S(=O)(=O)C3)C1` (stereo not drawn) showed an IC50 of 6.05 µM.
The same measure for `Cc1nc(-c2cccc(-n3nc(C(=O)N4CCOCC4)c4c3-c3ccccc3S(=O)(=O)C4)c2)n[nH]1`: 4.86 µM.
The same measure for `CN1CCN(C(=O)c2ccc3c(c2)-c2c(c(C(=O)N4CCOCC4)nn2-c2ccccc2)CS3(=O)=O)CC1`: 4.28 µM; for `CN(C)c1cccc(-n2nc(C(=O)N3CCOCC3)c3c2-c2ccccc2S(=O)(=O)C3)c1`: 4.72 µM.
The same measure for `O=C(c1nn(-c2cccc(OCCn3cccn3)c2)c2c1CS(=O)(=O)c1ccccc1-2)N1CCOCC1`: 0.445 µM; for `CCCCn1nc(C(=O)N2CCOCC2)c2c1-c1ccccc1S(=O)(=O)C2`: 0.377 µM; for `CCC1c2c(C(=O)N3CCOCC3)nn(-c3ccccc3)c2-c2ccccc2S1(=O)=O` (stereo not drawn): 2.47 µM.
Compound `O=C(c1nn(C2CCN(CCC3CCOCC3)C2)c2c1CS(=O)(=O)c1ccccc1-2)N1CCOCC1` (stereo not drawn) came in with a half-maximal inhibitory concentration (IC50) of 0.28 µM. This IC50 is about 8.8-fold lower than that of the compound before.
`O=C(c1nn(C2CCCN(CCn3cccn3)C2)c2c1CS(=O)(=O)c1ccccc1-2)N1CCOCC1` (stereo not drawn) yielded a half-inhibitory concentration (IC50) of 0.169 µM.
The same measure for `O=C(c1nn([C@H]2CCCN(CCN3CCCCC3)C2)c2c1CS(=O)(=O)c1ccccc1-2)N1CCOCC1`: 0.015 µM; for `Nc1ncc(-c2cccc(-n3nc(C(=O)N4CCOCC4)c4c3-c3ccccc3S(=O)(=O)C4)c2)cn1`: 0.454 µM.
The same measure for `O=C(c1nn(-c2cccc(CN3CC(F)(F)C3)c2)c2c1CS(=O)(=O)c1ccccc1-2)N1CCOCC1`: 0.643 µM; for `COCCNc1ccc2c(c1)-c1c(c(C(=O)N3CCOCC3)nn1-c1ccccc1)CS2(=O)=O`: 0.902 µM; for `COc1ccc(C(=O)Cn2nc(C(=O)N3CCOCC3)c3c2-c2ccccc2S(=O)(=O)C3)cc1`: 14.5 µM.
To `COC1CCCN(C(=O)c2cccc(-n3nc(C(=O)N4CCOCC4)c4c3-c3ccccc3S(=O)(=O)C4)c2)C1` (stereo not drawn) belongs 0.246 µM; to `O=C(c1nn(-c2cccc(-c3cnn(CCN4CCOCC4)c3)c2)c2c1CS(=O)(=O)c1ccccc1-2)N1CCOCC1`, 0.338 µM; to `COc1ccc2c(c1)S(=O)(=O)Cc1c(C(=O)N3CCOCC3)nn([C@H]3CCCN(CCC4CCOCC4)C3)c1-2`, 0.027 µM.
As for `O=C(c1nn(C2CCN(CC3CCOC3)C2)c2c1CS(=O)(=O)c1c(F)cccc1-2)N1CCOCC1` (stereo not drawn), the concentration for half-maximal inhibition (IC50) was determined as 0.057 µM.
The same measure for `O=C(c1n[nH]c2c1CS(=O)(=O)c1ccccc1-2)N1CCOCC1`: 2.88 µM; for `O=C(c1nn(C2CCCN(CCCn3cccc3)C2)c2c1CS(=O)(=O)c1ccccc1-2)N1CCOCC1` (stereo not drawn): 0.09 µM.
The same measure for `O=C(c1nn(C2CCCN(CCF)C2)c2c1CS(=O)(=O)c1ccccc1-2)N1CCOCC1` (stereo not drawn): 0.32 µM.
To `O=C(c1nn([C@H]2CCCN(CCN3CCC(F)CC3)C2)c2c1CS(=O)(=O)c1ccccc1-2)N1CCOCC1` belongs 0.025 µM.
`O=C(c1nn(C2CCOCC2)c2c1CS(=O)(=O)c1sccc1-2)N1CCOCC1` returned an IC50 of 0.824 µM.
`O=C(c1nn(-c2ccccc2)c2c1C(CC1CC1)S(=O)(=O)c1ccccc1-2)N1CCOCC1` (stereo not drawn) gave a concentration for half-maximal inhibition (IC50) of 3.9 µM.
For `O=C(c1nn([C@@H]2CCN(C3CCOCC3)C2)c2c1CS(=O)(=O)c1c(F)cccc1-2)N1CCOCC1`, the half-maximal inhibitory concentration (IC50) came out at 2.04 µM. Compared with the last compound, the IC50 is about 1.9-fold lower.
To `O=C(c1nn([C@H]2CCCN(C3CCOCC3)CC2)c2c1CS(=O)(=O)c1ccccc1-2)N1CCOCC1` belongs 0.34 µM; to `CC(C)(C)CCN1CCCC(n2nc(C(=O)N3CCOCC3)c3c2-c2ccccc2S(=O)(=O)C3)C1` (stereo not drawn), 0.587 µM.
The same measure for `O=C(c1nn(-c2ccccc2)c2c1CS(=O)(=O)c1sccc1-2)N1CCOCC1`: 1.7 µM.
